According to patent US8969299B2, “Therapeutic agents for regulating serum phosphorus” (KAI Pharmaceuticals, Inc., priority 2011, dated 2015):
Blank lines part the entries; values can stand above or below the compound they belong to. Peptide text beside a SMILES is read from it.

Legend:
1K1C model animals = test: plasma PTH reduction after 30-minute IV infusion in 1K1C model animals; assay type: in vivo; details: 3 mg/kg; for effect on plasma PTH: 30-minute IV infusion; for mean PTH reduction: 24 hour time point
Excerpt: These compounds include (i) Ac-crrrr-NH2 (SEQ ID NO:4), (ii) Ac-crrrrr-NH2 (SEQ ID NO:5), (iii) Ac-crrrrrr-NH2 (SEQ ID NO:6), and (iv) Ac-crrrrrrr-NH2 (SEQ ID NO:7). In previous studies, the compounds identified as SEQ ID NO:4, SEQ ID NO:5, SEQ ID NO:6 and SEQ ID NO:7 were each administered by a 30-minute IV infusion to 1K1C model animals and effected a reduction in plasma PTH levels as a percent of the pre-dosing (baseline) level. […] These latter two compounds produced a mean PTH reduction of ˜40% and 60% at the 24 hour time point, respectively. It should be noted that the compounds in this study were administered at the same mg/kg dose but, due to differences in molecular weight, a different number of moles of each compound was actually dosed.

normal rats = test: PTH reduction in vivo in normal rats; parameters: species or system rat; details: for decrease in percent PTH: after a single IV administration in normal rats
Experimental: The data illustrate that cationic and uncharged residues at different positions are not all equal and there are changes in activity as a result of change in the compound structure.
The structure-activity relationship of the thiol-containing group in the X1 subunit of the compound was further analyzed by preparing compounds with differing X1 subunits. The compounds, were tested in vivo in normal rats for activity to reduce PTH. The data illustrated that the thiol-containing X1 subunit can be varied. Compounds with the following in the N-terminal residue were tested—D-cysteine (cys), D-penicillamine (dPen), d-homocysteine (dHcy) and mercaptopropionic acid (Mpa). In addition, a natural or non-natural amino acid, such as beta alanine, can be conjugated to the N-terminal thiol-containing residue. The data illustrated that cationic compounds such as […] (SEQ ID NO:6) containing different thiol-containing groups in the X1 subunit effectively reduce PTH in vivo.
In another study of the structure activity relationship, the contribution of non-cationic amino acids to the potency of the peptides was evaluated by preparing a series of peptides with various D-amino acid residues or glycine or with sterically-hindered non-natural amino acids, substituted at various positions in the peptide Ac-carrrar-NH2 (SEQ ID NO:26) and in the peptide Ac-crrarar-NH2 (SEQ ID NO:153). The peptides were administered as an IV bolus to normal Sprague Dawley rats at a dose of 0.5 mg/kg. An intravenous (IV) bolus of saline was used as a control. Plasma PTH levels were assessed prior to dosing and 1, 2, 3 and 4 hours after dosing.

PTH blood concentration = test: in vivo PTH-lowering activity (species not stated)
Experimental: The contribution of the thiol-containing group in the X1 subunit of the compound (e.g., in certain embodiments where the compound is a peptide on the N-terminal residue), was also investigated in an in vivo study. The PTH-lowering activity of the peptides identified as SEQ ID NO:26 (Ac-carrrar-NH2) and as SEQ ID NO:29 (Ac-arrrar-NH2) was evaluated in vivo.

human CaSR = biological target: T1, human CaSR (Homo sapiens, UniProt P41180); test: IP1 production in HEK293 cells that express the human CaSR; assay type: cell-based; details: HEK 293 cells
T1 construct: expressed in transfected cells; host or cells: HEK293
T1 sequence (P41180 20-1078): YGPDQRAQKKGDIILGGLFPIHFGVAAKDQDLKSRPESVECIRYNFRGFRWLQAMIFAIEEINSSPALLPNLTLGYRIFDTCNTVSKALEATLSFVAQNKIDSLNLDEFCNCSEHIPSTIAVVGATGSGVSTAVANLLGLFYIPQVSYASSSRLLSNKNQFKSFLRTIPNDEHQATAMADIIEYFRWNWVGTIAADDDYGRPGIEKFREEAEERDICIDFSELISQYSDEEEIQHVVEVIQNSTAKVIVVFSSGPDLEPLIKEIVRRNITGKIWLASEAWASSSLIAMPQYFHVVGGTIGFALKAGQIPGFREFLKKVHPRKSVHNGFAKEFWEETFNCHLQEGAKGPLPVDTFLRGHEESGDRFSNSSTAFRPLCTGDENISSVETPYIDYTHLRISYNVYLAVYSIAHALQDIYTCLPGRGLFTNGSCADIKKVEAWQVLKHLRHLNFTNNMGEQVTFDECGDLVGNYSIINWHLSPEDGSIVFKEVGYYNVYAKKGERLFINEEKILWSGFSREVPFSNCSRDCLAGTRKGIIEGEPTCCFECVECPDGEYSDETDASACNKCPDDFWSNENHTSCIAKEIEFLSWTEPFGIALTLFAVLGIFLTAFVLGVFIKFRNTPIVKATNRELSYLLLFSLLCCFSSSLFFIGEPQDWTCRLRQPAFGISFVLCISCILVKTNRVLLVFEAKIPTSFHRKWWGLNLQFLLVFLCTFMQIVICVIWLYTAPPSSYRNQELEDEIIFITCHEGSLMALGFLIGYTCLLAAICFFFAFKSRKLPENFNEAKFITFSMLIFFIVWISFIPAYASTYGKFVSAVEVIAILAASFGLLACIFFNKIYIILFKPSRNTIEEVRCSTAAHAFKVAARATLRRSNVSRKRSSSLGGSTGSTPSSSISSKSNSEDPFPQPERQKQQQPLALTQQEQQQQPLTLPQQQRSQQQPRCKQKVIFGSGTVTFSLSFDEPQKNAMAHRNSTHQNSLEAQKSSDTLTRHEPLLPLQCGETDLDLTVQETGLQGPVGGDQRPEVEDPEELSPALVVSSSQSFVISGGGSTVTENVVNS

SMILES: CC(=O)N[C@H](CS)C(=O)N[C@H](CCCNC(=N)N)C(=O)N[C@H](CCCNC(=N)N)C(=O)N[C@H](CCCNC(=N)N)C(=O)N[C@H](CCCNC(=N)N)C(=O)N[C@H](CCCNC(=N)N)C(N)=O [SEQ ID NO: 5, Ac-crrrrr-NH2] (HELM PEPTIDE1{[ac].[dC].[dR].[dR].[dR].[dR].[dR].[am]}$$$$V2.0)
effect on plasma PTH (1K1C model animals): significant drop in plasma PTH
mean PTH reduction (1K1C model animals): 60%

SMILES: CC(=O)N[C@H](CS)C(=O)N[C@H](CCCNC(=N)N)C(=O)N[C@H](CCCNC(=N)N)C(=O)N[C@H](CCCNC(=N)N)C(=O)N[C@H](CCCNC(=N)N)C(=O)N[C@H](CCCNC(=N)N)C(=O)N[C@H](CCCNC(=N)N)C(N)=O [SEQ ID NO: 6, Ac-crrrrrr-NH2]
decrease in percent PTH (normal rats): below the detection limit or essentially zero
in vivo activity in comparison (PTH blood concentration; compared with SEQ ID NO:41): greater and more prolonged activity than Ac-crrrrrrrr-NH2 (SEQ ID NO:41)
effect on plasma PTH (1K1C model animals): significant drop in plasma PTH
mean PTH reduction (1K1C model animals): ~40%

SMILES: CC(=O)N[C@H](CS)C(=O)N[C@H](CCCNC(=N)N)C(=O)N[C@H](CCCNC(=N)N)C(=O)N[C@H](CCCNC(=N)N)C(=O)N[C@H](CCCNC(=N)N)C(=O)N[C@H](CCCNC(=N)N)C(=O)N[C@H](CCCNC(=N)N)C(=O)N[C@H](CCCNC(=N)N)C(N)=O [SEQ ID NO: 7, Ac-crrrrrrr-NH2] (HELM PEPTIDE1{[ac].[dC].[dR].[dR].[dR].[dR].[dR].[dR].[dR].[am]}$$$$V2.0)
effect on plasma PTH (1K1C model animals): significant drop in plasma PTH

SMILES: CC(=O)N[C@H](CS)C(=O)N[C@H](C)C(=O)N[C@H](CCCNC(=N)N)C(=O)N[C@H](CCCNC(=N)N)C(=O)N[C@H](CCCNC(=N)N)C(=O)N[C@H](CCCNC(=N)N)C(=O)N[C@H](CCCNC(=N)N)C(N)=O [SEQ ID NO: 8, Ac-carrrrr-NH2] (HELM PEPTIDE1{[ac].[dC].[dA].[dR].[dR].[dR].[dR].[dR].[am]}$$$$V2.0)
decrease in percent PTH (normal rats): below the detection limit or essentially zero

SMILES: CC(=O)N[C@H](CS)C(=O)N[C@H](CCCNC(=N)N)C(=O)N[C@H](CCCNC(=N)N)C(=O)N[C@H](C)C(=O)N[C@H](CCCNC(=N)N)C(=O)N[C@H](CCCNC(=N)N)C(=O)N[C@H](CCCNC(=N)N)C(N)=O [SEQ ID NO: 10, Ac-crrarrr-NH2] (HELM PEPTIDE1{[ac].[dC].[dR].[dR].[dA].[dR].[dR].[dR].[am]}$$$$V2.0)
decrease in percent PTH (normal rats): below the detection limit or essentially zero

reduction in in vitro potency relative to Ac-crrrrrr-NH2 (SEQ ID NO:6) (human CaSR): 5-10 fold
SMILES: CC(=O)N[C@H](CS)C(=O)N[C@H](CCCNC(=N)N)C(=O)N[C@H](CCCNC(=N)N)C(=O)N[C@H](CCCNC(=N)N)C(=O)N[C@H](C)C(=O)N[C@H](CCCNC(=N)N)C(=O)N[C@H](CCCNC(=N)N)C(N)=O [SEQ ID NO: 11, Ac-crrrarr-NH2] (HELM PEPTIDE1{[ac].[dC].[dR].[dR].[dR].[dA].[dR].[dR].[am]}$$$$V2.0)
in vivo percent PTH AUC reduction (normal rats; single IV administration): 45%

SMILES: CC(=O)N[C@H](CS)C(=O)N[C@H](C)C(=O)N[C@H](CCCNC(=N)N)C(=O)N[C@H](C)C(=O)N[C@H](CCCNC(=N)N)C(=O)N[C@H](CCCNC(=N)N)C(=O)N[C@H](CCCNC(=N)N)C(N)=O [SEQ ID NO: 15, Ac-cararrr-NH2] (HELM PEPTIDE1{[ac].[dC].[dA].[dR].[dA].[dR].[dR].[dR].[am]}$$$$V2.0)
ability to activate the CaSR in vitro, in words (human CaSR): significantly reduced potency in vitro in activating the CaSR

reduction in in vitro potency relative to Ac-crrrrrr-NH2 (SEQ ID NO:6) (human CaSR): −3 fold
SMILES: CC(=O)N[C@H](CS)C(=O)N[C@H](C)C(=O)N[C@H](CCCNC(=N)N)C(=O)N[C@H](CCCNC(=N)N)C(=O)N[C@H](CCCNC(=N)N)C(=O)N[C@H](C)C(=O)N[C@H](CCCNC(=N)N)C(N)=O [SEQ ID NO: 26, Ac-carrrar-NH2]
PTH blood concentration (PTH blood concentration; 0.5 mg/kg dose): decreased PTH blood concentration to a non-detectable level for up to 4 hours after dosing
ability to activate the CaSR in vitro, in words (human CaSR): retained much of the potency seen with Ac-crrrrrr-NH2 (SEQ ID NO:6)

SMILES: CC(=O)N[C@H](C)C(=O)N[C@H](CCCNC(=N)N)C(=O)N[C@H](CCCNC(=N)N)C(=O)N[C@H](CCCNC(=N)N)C(=O)N[C@H](C)C(=O)N[C@H](CCCNC(=N)N)C(N)=O [SEQ ID NO: 29, Ac-arrrar-NH2] (HELM PEPTIDE1{[ac].[dA].[dR].[dR].[dR].[dA].[dR].[am]}$$$$V2.0)
PTH concentration (PTH blood concentration; 9 mg/kg dose): did not reduce PTH concentration
ability to activate the CaSR in vitro, in words (human CaSR): dramatically reduced the ability of the compound to activate the CaSR

SMILES: CC(=O)N[C@H](CS)C(=O)N[C@H](CCCNC(=N)N)C(=O)N[C@H](CCCNC(=N)N)C(=O)N[C@H](CCCNC(=N)N)C(=O)N[C@H](CCCNC(=N)N)C(=O)N[C@H](CCCNC(=N)N)C(=O)N[C@H](CCCNC(=N)N)C(=O)N[C@H](CCCNC(=N)N)C(=O)N[C@H](CCCNC(=N)N)C(N)=O [SEQ ID NO: 41, Ac-crrrrrrrr-NH2] (HELM PEPTIDE1{[ac].[dC].[dR].[dR].[dR].[dR].[dR].[dR].[dR].[dR].[am]}$$$$V2.0)
ability to activate the CaSR in vitro, in words (human CaSR): more potent at activating the CaSR

decrease in potency relative to Ac-carrrar-NH2 (SEQ ID NO:26) (human CaSR): < 4 fold
reduction in in vitro potency relative to Ac-crrrrrr-NH2 (SEQ ID NO:6) (human CaSR): 10 fold
SMILES: CC(=O)N[C@@H](CS)C(=O)N[C@H](C)C(=O)N[C@@H](CCCNC(=N)N)C(=O)N[C@H](CCCNC(=N)N)C(=O)N[C@@H](CCCNC(=N)N)C(=O)N[C@H](C)C(=O)N[C@@H](CCCNC(=N)N)C(N)=O [SEQ ID NO: 44, Ac-CaRrRaR-NH2]
